Assays:
[1] = tested on: ornithine decarboxylase (ODC); assay: inhibition of TPA induction of ornithine decarboxylase (ODC); format: in vivo
Text: The retinoid-like activity of these compounds is confirmed through the classic measure of retinoic acid activity involving the effects of retinoic acid on ornithine decarboxylase. The original work on the correlation between retinoic acid and decrease in cell proliferation was done by Verma & Boutwell, Cancer Research, 1977, 37,2196-2201. That reference discloses that ornithine decarboxylase (ODC) activity increased precedent to polyamine biosynthesis. It has been established elsewhere that increases in polyamine synthesis can be correlated or associated with cellular proliferation. Thus, if ODC activity could be inhibited, cell hyperproliferation could be modulated. Although all causes for ODC activity increases are unknown, it is known that 12-0-tetradecanoylphorbol-13-acetate (TPA) induces ODC activity.

[2] = tested on: ornithine decarboxylase (ODC); settings: general statement, TPA-induced ODC; cited from earlier work

Molecule `CC1(C)CCCC2(C)OC12C#Cc1ccc2cc(C(=O)O)ccc2c1` (racemic) [Compound 1, 6-[2-(1,2-epoxy-2,6,6-trimethyl-cyclohexan-1-yl)-ethynyl]-2-naphthoic acid] has an IC80 [1] of 0.0305 µM.

In the case of `CC1=C(/C=C/C(C)=C/C=C/C(C)=C/C(=O)O)C(C)(C)CCC1` [Retinoic acid], the “inhibition of TPA induction of ODC activity” value [2] is given as “inhibits this induction of ODC activity by TPA”.
